# Source: article PMC8624133, “10th Trends in Medical Mycology Held on 8 to 11 October 2021, Aberdeen, Scotland, Organized by the European Confederation of Medical Mycology (ECMM)” (Journal of Fungi, 2021)
# Where two headings read alike, the source gives them in different places.
# Key:
# [1] = tested on: sessile cells of yeast mono and dual-species biofilms; assay: MIC of catheter yeast isolates, mono and dual-species biofilms; type: cell-based; settings: range
# [2] = tested on: C. glabrata; type: cell-based, Candida glabrata
# [3] = tested on: C. tropicalis; type: cell-based, Candida tropicalis
# [4] = tested on: Candida auris isolates; assay: Disc diffusion, Oxoid discs; type: cell-based
# [5] = tested on: C. albicans; assay: Candidemia Netherlands, MIC distributions against EUCAST ECOFF; type: cell-based, Candida albicans
# [6] = tested on: Aspergillus tubingensis; assay: EUCAST susceptibility; type: cell-based
# Experimental: The fungus was identified as Aspergillus niger and liposomal amphotericine B was switched to anidulafungin pending susceptibility testing as the patient had pre-existing […] (eGFR CKD-EPI 40 mL/min/1.73 m²). […] Despite increasing the anidulafungin dosage to 200 mg daily and adequate voriconazol levels, serum galactomannan levels remained elevated (index 2.1 at discharge). […] Since no extracardiac sources were found and the patient did well clinically, they were discharched. Anidulafungin was switched to caspofungin to facilitate ongoing IV treatment in the outpatient setting. […] The patient died shortly after. Obduction was not performed.
# [7] = tested on: Candida auris isolates; assay: microbe, parasite or virus in culture; type: cell-based
# [8] = tested on: C. parapsilosis; type: cell-based, Candida parapsilosis
# [9] = tested on: C. auris clinical strains; assay: organism not typed; type: cell-based, Candida auris; settings: range, 78 strains from patients with COVID-19
# [10] = tested on: environmental yeasts from a lagoon; assay: organism not typed; type: cell-based
# [11] = tested on: Exophiala phaeomuriformis; assay: MIC, CLSI M27-A3; type: cell-based; settings: read-out: MIC values
# Experimental: Materials & Methods: The aviation kerosone samples came from an aviation company in Porto Alegre, state of Rio Grande do Sul, Brazil. The fungi isolation was carried out using the modified ASTM D6974-09 Standard. In this procedure, 500 mL kerosene samples were filtered, in triplicate, under aseptic conditions, under vacuum, using a 0.22 μm membrane (Millipore). After filtering, the membranes were deposited in potato dextrose agar culture medium. The plates were incubated in an oven at 30 °C for seven days. After this period, the colonies were isolated in new culture media for purification of the isolates. Molecular identification was performed through the sequencing of ITS DNA regions. The profile of sensitivity to clinical antifungals was assessed following protocols M27-A3 of the Clinical and Laboratory Standards Institute (CLSI).
# [12] = tested on: C. albicans; type: cell-based, Candida albicans
# [13] = tested on: C. glabrata; assay: Candidemia Netherlands, MIC distributions against EUCAST ECOFF; type: cell-based, Candida glabrata
# [14] = tested on: Other species of Candida; type: cell-based, Candida spp.
# [15] = tested on: Candida sp. and other yeast isolates, planktonic; assay: MIC of catheter yeast isolates, planktonic form; type: cell-based; settings: range; read-out: MIC
# [16] = tested on: F. verticillioides; assay: Etest susceptibility; type: cell-based, Fusarium verticillioides
# [17] = tested on: invasive C. glabrata strains; assay: YeastOne Sensititre colorimetric broth microdilution; type: cell-based, Candida glabrata; settings: Nakaseomyces glabratus
# Experimental: Material and Method: Thirty-six clinical isolates of invasive C. glabrata strains were analyzed in this study. Minimum inhibitory concentrations (MICs) were determined using colorimetric broth microdilution (YeastOneSensititre, Trek diagnostics). Genomic DNA was isolated using Qiagen DNA extraction Kit. The FKS1 and FKS2 gene fragment were amplified and PCR products were purified prior to sequencing. Double-strand sequencing of PCR products was performed using Sanger sequencing methodology. Sequences were analyzed with MEGA-6 software to identify specific SNP combination against wild-type sequences of C. glabrata.
# [18] = tested on: C. krusei; type: cell-based, Candida krusei
# [19] = tested on: A. fumigatus complex; settings: share of isolates, n = 59, EUCAST clinical breakpoints
# [20] = Triazole drug levels in ABPA patients with asthma; type: in vivo, human; settings: 452 patients, Oct 2009 to March 2021
# From the text: Materials & Methods: This was a retrospective single-centre cohort study evaluating longitudinal outcomes in non-cystic fibrosis (CF) ABPA patients with underlying chronic lung disease (asthma), and description of treatment approaches. Statistical Analysis System (SAS) programming was used for data integration from multiple hospital electronic systems, for patient identification and data analysis. Criteria for inclusion were patients with a background of asthma, serum Total IgE >1000 IU/mL and a positive Aspergillus IgE, with or without a positive culture for A. fumigatus from a respiratory sample. Data collected included demographics, lung function severity, disease activity serological markers (Aspergillus IgE, Aspergillus IgG, Total IgE) and triazole levels. In this study the impact of fungal therapy on disease outcomes was assessed.
# [21] = tested on: Phaeoacremonium parasiticum; assay: Antifungal susceptibility testing; type: cell-based
# Experimental: Results: Cultures for bacteria were sterile. Culture on Sabouraud was positive after 5 days of incubation, showing slow growing and initially white colonies. […] Its identification was performed by sequencing the internal transcribed spacer (ITS) region of ribosomal DNA, being the isolate identified as Phaeoacremonium parasiticum (100% homology).
# [22] = tested on: A. fumigatus clinical isolates; assay: Susceptibility of clinical isolates from CF patients; settings: all 10 clinical isolates
# [23] = tested on: A. fumigatus veterinary isolates; assay: EUCAST microdilution of veterinary isolates; type: cell-based, Aspergillus fumigatus
# Experimental: All have been confirmed as A. fumigatus by MALDI-TOF MS using the BCCM/IHEM database. The antifungal susceptibility was evaluated using the microdilution EUCAST method. Cyp51A gene sequencing has been performed on all resistant isolates.
# [24] = tested on: A. niger complex; assay: EUCAST E.Def 9.3.2 susceptibility, CPA isolates; type: cell-based, Aspergillus niger complex; settings: n = 7, ECOFFs
# [25] = tested on: Rhizopus arrhizus; assay: E test; type: cell-based
# [26] = tested on: C. tropicalis; assay: ARIA surveillance, CLSI M27 broth microdilution; type: cell-based, Candida tropicalis
# Experimental: Materials & Methods: Isolates (n = 730) were collected and re-identified by MALDI-TOF or molecular methods. […] Percentage susceptibility (%S) or wild-type (%WT) were calculated according to CLSI breakpoints (CLSI supplement M60) or epidemiological cut-off values (CLSI supplement M59), respectively.
# [27] = tested on: Rasamsonia argillacea species complex; assay: Antifungal susceptibility testing; type: cell-based; settings: sputum isolate of a CF patient
# [28] = tested on: A. fumigatus strains; assay: EUCAST E.DEF 9.3.2 broth microdilution; type: cell-based, Aspergillus fumigatus; design: MIC Range: unit not given beside the values; MIC50 / MIC90: unit not given here
# Experimental: Methods: The research was conducted on 29 A. fumigatus strains. Minimum inhibitory concentrations (MIC) were detected by broth microdilution method (BM) following EUCAST definitive document E.DEF 9.3.2 and E-test in accordance with manufacturer instructions.
# [29] = tested on: McLDM strains; assay: EUCAST MIC, S. cerevisiae overexpressing M. circinelloides LDM, resistance phenotypes; type: cell-based, Saccharomyces cerevisiae
# [30] = tested on: R. delemar; assay: Murine mucormycosis, immunosuppressed mice infected intratracheally; type: in vivo, ICR mice; settings: n = 20/arm
# Experimental: (§1) Methods & Materials: In vitro susceptibility was conducted by the CLSI M38 method using a clinical isolate of Rhizopus delemar (a common cause of mucormycosis). ICR mice were immunosuppressed with cyclophosphamide and cortisone acetate on days −2, +3, and +8, relative to infection with intratracheally instilled R. delemar. […] Mice survival through Day +21 served as the primary endpoint.
# [31] = tested on: A. fumigatus (resistant to posaconazole strain v79-63); assay: Neutropenic animal model of invasive pulmonary aspergillosis; type: in vivo, CD-1 mice
# [32] = tested on: eumycetoma; settings: in vivo; cited from earlier work
# From the text: Mycetoma: Mycetoma is a chronic, progressive, implantation inflammatory disease characterised by severe and stigmatising deformities, disability, and high morbidity. The disease is caused by fungi (eumycetoma) and several Actinomycetales members (actinomycetoma). Its estimative global burden is 9000 cases. There are no robust epidemiological studies on mycetoma in SA, but it is tconsidered the third most prevalent endemic IM in SA, especially among low socioeconomic adult males living in rural areas from Argentina, Brazil, Colombia and Venezuela, where the principal agents are Madurella spp. a ...
# [33] = tested on: R. delemar 99–880; assay: CLSI M38 in vitro susceptibility; type: cell-based, Rhizopus delemar; settings: Rhizopus delemar, read-out: MIC at 100% inhibition of growth
# Experimental: as §1
# [34] = tested on: azole-resistant A. fumigatus SS clinical strains; assay: EUCAST E.DEF 9.3.2; type: cell-based; settings: Aspergillus fumigatus
# [35] = tested on: Scedosporium apiospermum; assay: EUCAST reference method MIC; type: cell-based
# Experimental: Case presentation: A patient presented with a bursitis of their left elbow. Six months before they were treated with lymphodepleting chemotherapy directly followed by B-cell associated CD19-specific chimeric antigen receptor (CAR) T cell therapy for recurrence of follicular lymphoma. They were considered immunocompromised, with total neutrophils and lymphocytes slightly below normal levels, absent B-cells, and a treatment associated persistent hypogammaglobulinaemia. Four weeks before presentation at our hospital they contacted their GP because of swelling and pain of their left elbow. Their GP aspirated fluid from their elbow, injected steroids and started antibiotics, but now there was recurrence of swelling and pain. Bursitis without arthritis was diagnosed by a rheumatologist and the bursa was surgically opened and drained, relieving pus. The patient was started on oral flucloxacillin and sent home. Two days later the culture of the pus from the bursa grew white colonies on a Sabouraud dextrose agar plate, showing long conidophores with large oval conidia on microscopy. […] Over the next few weeks the bursitis symptoms diminished. […] Voriconazole is considered first line treatment for Scedosporium infections. […] Eight weeks later there were no signs of bursitis and posaconazole was discontinued.
# [36] = tested on: A. fumigatus strain v79-63; assay: EUCAST MIC of the infecting strain; type: cell-based; settings: Aspergillus fumigatus, V7963
# [37] = tested on: C. auris Isolate B and Isolate C; assay: microbe, parasite or virus in culture; type: cell-based, Candida auris
compound,measurement,setting,value
CC[C@H](C)C[C@H](C)CCCCCCCCC(=O)N[C@H]1C[C@@H](O)[C@@H](NCCN)NC(=O)[C@@H]2[C@@H](O)CCN2C(=O)[C@H]([C@H](O)CCN)NC(=O)[C@H]([C@H](O)[C@@H](O)c2ccc(O)cc2)NC(=O)[C@@H]2C[C@@H](O)CN2C(=O)[C@H]([C@@H](C)O)NC1=O [caspofungin],MIC,[1],0.5 to 16 µg/mL
same,"R (resistant) isolates, n (%)",[2],3 (5.5%)
same,"S (sensitive) isolates, n (%)",[2],44 (80%)
same,"I (intermediate) isolates, n (%)",[3],0 (0%)
same,"R (resistant) isolates, n (%)",[3],0 (0%)
same,"S (sensitive) isolates, n (%)",[3],44 (100%)
same,categorised as resistant on ZD,[4],none
same,median zone diameter (ZD),"[4]; 25 µg FLU and 5 µg CAS discs, […]",23 mm
same,isolates within the wildtype distribution range,[5],98.9%
same,MIC,[6],60 µg/mL
same,categorised as resistant on MIC,[7]; CDC guidelines,13.2%
same,MIC,"[7]; Candidozyma auris, […], IQR given, read-out: median MIC",0.12 µg/mL
same,"I (intermediate) isolates, n (%)",[8],0 (0%)
same,"R (resistant) isolates, n (%)",[8],0 (0%)
same,"S (sensitive) isolates, n (%)",[8],132 (100%)
same,MIC,[9],0.06 to 1 µg/mL
same,isolates classified as resistant-like,"[10]; number of 71 yeasts, MIC at or above Candida breakpoint",48
same,MIC,"[10]; range, read-out: MIC of resistant-like isolates",1 to 128 µg/mL
same,MIC,[11],> 8 µg/mL
same,"I (intermediate) isolates, n (%)",[12],0 (0%)
same,"R (resistant) isolates, n (%)",[12],0 (0%)
same,"S (sensitive) isolates, n (%)",[12],138 (100)
same,isolates within the wildtype distribution range,[13],87.1%
same,"I (intermediate) isolates, n (%)",[14],0 (0%)
same,"R (resistant) isolates, n (%)",[14],0 (0%)
same,"S (sensitive) isolates, n (%)",[14],18 (100%)
same,MIC,[15],0.06 to 1 µg/mL
same,"minimum inhibitory concentration (MIC), in words",[16],high values
same,MIC,"[17]; 36 clinical isolates, read-out: median (Min–Max) MIC",0.06 µg/mL
same,MIC,[17]; isolate with FKS1 D632H,0.25 µg/mL
same,MIC,[17]; isolate with FKS2 I661T,0.12 µg/mL
same,"I (intermediate) isolates, n (%)",[18],1 (33.3%)
same,"S (sensitive) isolates, n (%)",[18],2 (66.7%)
CC[C@@H]([C@H](C)O)n1ncn(-c2ccc(N3CCN(c4ccc(OC[C@@H]5CO[C@@](Cn6cncn6)(c6ccc(F)cc6F)C5)cc4)CC3)cc2)c1=O [posaconazole],Resistance,[19],5%
same,median trough drug level,[20],1.39 mg/L
same,"minimal inhibitory concentrations (MIC), in words",[21],low
same,susceptibility,[22],susceptible
same,isolates in the area of technical uncertainty (ATU),[23],60%
same,Non-wild type isolates,[24],43%
same,MIC,[25],> 32 µg/mL
same,WT,[26]; Argentina,57.1%
same,WT,"[26]; Australia, Panama, USA and Taiwan",> 90%
same,WT,[26]; Italy,47.4%
same,minimal inhibitory concentrations (MIC),[27],high minimal inhibitory concentrations
same,MIC50,[28]; 28 h,0.25
same,MIC90,[28]; 28 h,0.5
same,MIC Range,"[28]; 28 h, 29 strains",0.125–2
same,MIC50,[28]; 48 h,0.25
same,MIC90,[28]; 48 h,0.5
same,MIC Range,[28]; 48 h,0.125–4
same,MICs compared to AD2Δ,[29],not affected
same,MIC,[9],0.06 to 8 µg/mL
same,% Survival,"[30]; through Day +21, placebo 0",25%
same,Median Survival,"[30]; treatment from 24 h post infection, IBREXA 30 mg/kg po BID 7 d, LAMB 10 mg/kg iv 4 d, POSA 30 mg/kg po QD 7 d, placebo 8",13 days
same,log10CFU/lung,"[31]; mean ± SEM, 3 animals treated for 3 d, placebo 6.1 ± 0.08",5.2 ± 0.48 log10CFU/lung
same,survival rates,"[31]; survival recorded until 15 d, IL-18 10 ng/mouse intranasally daily -2 d till +7 d, posaconazole 16 mg/kg/day, groups of 10, control 20%",56%
same,MIC,[11],0.125 µg/mL
same,Cure rate,[32],25–35%
same,MIC,[33],0.5 µg/mL
same,MIC,"[34]; strain from pleural fluid of an ICU patient, no mutations in cyp51A",0.5 µg/mL
same,MIC,"[34]; two strains from a cystic fibrosis patient, TR34/L98H",1 µg/mL
same,MIC,[35]; first isolate from bursa pus,1 µg/mL
same,MIC,"[35]; isolate two months later, under posaconazole",2 µg/mL
same,MIC,[36],> 16 µg/mL
same,change of MIC,[37],largely unchanged
same,reduction in MIC,[37]; Isolate C with ERG11 WT in place of K143R,2 fold
